Measured values as given in patent US9724388B2, “FGF-18 compound dosing regimen” (MERCK PATENT GMBH, priority 2014, dated 2017).
Where two headings read alike, the source gives them in different places.

How the values were obtained:
OA symptoms = conditions: Chevalier et al., 2009, cited from earlier work
RA patients = conditions: cited from earlier work
[1] = system: Primary articular porcine chondrocytes; test: Porcine chondrocyte proliferation with or without IL1α challenge; type: cell-based, pig; conditions: for restoration of rhFGF-18 proliferative activity in IL1α-challenged chondrocytes: anakinra 100 ng/mL with rhFGF-18 100 ng/mL, IL1α 10 ng/mL, direct and delayed treatments
Description: Porcine chondrocytes were isolated from the cartilage of a femoral head of a pig hip (pigs were approximately one year old). After dissection of the joints, the cartilage was harvested and digested 45 minutes with collagenase 0.25% (1/10 dilution of collagenase NBG4 2.5% in HAM's F12) at room temperature. The loosened cells were discarded and the cartilage further digested overnight with collagenase 0.1% (1/25 dilution of collagenase NBG4 2.5% in HAM's F12) at 37° C. to extract the chondrocytes. For this study, the chondrocytes were cultured in monolayer.
Primary articular porcine chondrocytes were stimulated or not with 10 ng/mL IL1α and were either treated immediately or 6 hours later with anakinra 100 ng/mL and/or trFGF-18 100 ng/mL. Each condition was performed in 4 or 6-plicates. As a control, cells were also cultured with anakinra alone, trFGF-18 alone or in the absence of any treatment (medium).
Pre-culture: After cell isolation porcine chondrocytes were inoculated at 20,000 cells/cm^2 and cultivated for one week in complete HAM's F12. Cells were then harvested with accutase, counted and used as described below.
For cells treated directly with anakinra: Chondrocytes were inoculated in a 24-well plate at 15,000 cells/well in 0.5 mL of complete HAM's F12. Then 0.25 mL of trFGF-18 400 ng/mL and/or 0.25 mL of anakinra 400 ng/mL were added to the cells. In the challenged samples, 10 μL of IL1α at 1,000 ng/mL were also added to the cells. trFGF-18, anakinra and IL1α were all diluted in complete HAM's F12. The final volume in the culture well was adjusted at 1 mL with complete HAM's F12. Final concentrations were 10 ng/mL IL1α, 100 ng/mL trFGF-18 and 100 ng/mL anakinra and the total culture time was eight days. A complete medium change was performed after four days. N=4.
For cells treated with anakinra and trFGF-18 6 hours after the IL1α challenge: Chondrocytes were inoculated in a 24-well plate at 15,000 cells/well in 1 mL of complete HAM's F12 containing or not containing IL1α 10 ng/mL. After 6 hours the medium was removed and replaced with 0.25 mL trFGF-18 400 ng/mL and/or 0.25 mL of anakinra 400 ng/mL. In the challenged samples, 0.25 mL of IL1α at 40 ng/mL was also added to the cells. trFGF-18, anakinra and IL1α were all diluted in complete HAM's F12. The final volume in the culture well was adjusted at 1 mL with complete HAM's F12. Final concentrations were 10 ng/mL IL1α, 100 ng/mL trFGF-18 and 100 ng/mL anakinra and the total culture time was eight days. A complete medium change was performed after four days. N=6.
After eight days of culture, cells were harvested with accutase and resulting cell suspensions were analyzed for cell concentration and cell viability with a ViCell™ cell analyzer (from Beckman Coulter). Statistical analysis consisted in a 1-way ANOVA followed by a Dunnett post-hoc analysis.

[2] = system: medial meniscal tear in the right knee joint; type: in vivo, rat; conditions: for swelling scores vs vehicle controls: days 24-29, 31, and 36-43
Description: Male Lewis rats underwent surgery to induce a medial meniscal tear in the right knee joint. Animals were dosed i.a. with FGF-18 (10 μg/joint) on days 21, 28, and 35 and dosed orally with diclofenac (either 1 mg/kg or 3 mg/kg) or vehicle on days 21-23, 28-30, and 35-37, then terminated on day 42 or day 63. Serum was collected and evaluated for alpha 2 macroglobulin (α2MG) levels on days −3, 21, 42, and 63. α2MG is an inflammation serum biomarker. The link between α2MG and inflammation has already been shown (Kuribayashi et al., 2013).

Row | Molecule | improvements in OA symptoms compared with placebo (OA symptoms) | pain versus placebo in OA (OA symptoms; anakinra 150 mg) | joint damage in RA patients (RA patients; Bresnihan, 2002, St. Clair) | pain in RA patients (RA patients; Mertens et al., 2009) | restoration of rhFGF-18 proliferative activity in IL1α-challenged chondrocytes [1] | restoration of rhFGF-18 proliferative activity in IL1α-challenged chondrocytes ([1]; listed as Anakinra) | effect on chondrocyte proliferation ([1]; anakinra alone, 100 ng/mL) | knee caliper measurements ([2]; diclofenac 1 mg/kg orally with FGF-18, any other time point) | knee caliper measurements ([2]; diclofenac 1 mg/kg orally with FGF-18, day 42) | swelling scores vs vehicle controls ([2]; diclofenac 1 mg/kg orally with FGF-18) | knee caliper measurements ([2]; diclofenac 3 mg/kg orally with FGF-18, any other time point) | knee caliper measurements ([2]; diclofenac 3 mg/kg orally with FGF-18, day 42) | swelling scores vs vehicle controls ([2]; diclofenac 3 mg/kg orally with FGF-18) | knee swelling (clinical observations and caliper measurements) ([2]; diclofenac 1 or 3 mg/kg with FGF-18)
1 | anakinra: recombinant, nonglycosylated form of human interleukin-1 receptor antagonist (IL-1Ra), SEQ ID NO: 3 | not significantly associated | a tendency toward pain reduction | reduction in frequency and severity of joint damage | pain reduction | fully block | fully restore | no effect | – | – | – | – | – | – | –
2 | O=C(O)Cc1ccccc1Nc1c(Cl)cccc1Cl [diclofenac, 2-(2,6-dichloranilino) phenylacetic acid] | – | – | – | – | – | – | – | not significantly affected | significantly reduced | significantly reduced | not significantly affected | significantly reduced | significantly reduced | significantly reduced
